One block for each compound: values may come before it.
Legend:
[1] = Concentration required for inhibition of Dopamine receptor D2 using [3H]spiperone as the radioligand
[2] = Concentration required for inhibition of Dopamine receptor D1 using [3H]SCH-23,390 as the radioligand
[3] = target: Adrenergic receptor beta (Homo sapiens, UniProt P08588+P07550+P13945); assay: Concentration required for inhibition of beta adrenergic receptor; assay type: protein assay
[4] = Effective dose required towards 5-hydroxytryptamine 4 receptor as agonism in rat tunica muscularis mucosae (TMM)
[5] = target: T1, Adrenergic receptor alpha-1 (Homo sapiens, UniProt P35348+P25100+P35368); assay: Concentration required for inhibition of alpha-1 adrenergic receptor using [3H]prazosin as the radioligand; assay type: protein assay
T1 sequence (P35348 whole entry): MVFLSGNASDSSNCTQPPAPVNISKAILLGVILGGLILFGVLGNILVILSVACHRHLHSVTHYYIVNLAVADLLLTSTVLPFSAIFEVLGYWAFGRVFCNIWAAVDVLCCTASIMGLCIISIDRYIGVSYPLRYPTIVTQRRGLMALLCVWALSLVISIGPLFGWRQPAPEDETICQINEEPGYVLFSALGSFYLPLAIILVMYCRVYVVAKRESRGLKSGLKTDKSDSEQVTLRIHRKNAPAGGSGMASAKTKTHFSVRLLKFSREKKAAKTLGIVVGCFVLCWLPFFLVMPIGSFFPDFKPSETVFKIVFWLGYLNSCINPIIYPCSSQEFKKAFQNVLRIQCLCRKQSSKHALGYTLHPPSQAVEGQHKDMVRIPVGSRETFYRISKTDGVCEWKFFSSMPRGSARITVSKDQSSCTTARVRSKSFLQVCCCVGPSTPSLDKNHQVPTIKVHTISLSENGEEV
T1 sequence (P25100 whole entry): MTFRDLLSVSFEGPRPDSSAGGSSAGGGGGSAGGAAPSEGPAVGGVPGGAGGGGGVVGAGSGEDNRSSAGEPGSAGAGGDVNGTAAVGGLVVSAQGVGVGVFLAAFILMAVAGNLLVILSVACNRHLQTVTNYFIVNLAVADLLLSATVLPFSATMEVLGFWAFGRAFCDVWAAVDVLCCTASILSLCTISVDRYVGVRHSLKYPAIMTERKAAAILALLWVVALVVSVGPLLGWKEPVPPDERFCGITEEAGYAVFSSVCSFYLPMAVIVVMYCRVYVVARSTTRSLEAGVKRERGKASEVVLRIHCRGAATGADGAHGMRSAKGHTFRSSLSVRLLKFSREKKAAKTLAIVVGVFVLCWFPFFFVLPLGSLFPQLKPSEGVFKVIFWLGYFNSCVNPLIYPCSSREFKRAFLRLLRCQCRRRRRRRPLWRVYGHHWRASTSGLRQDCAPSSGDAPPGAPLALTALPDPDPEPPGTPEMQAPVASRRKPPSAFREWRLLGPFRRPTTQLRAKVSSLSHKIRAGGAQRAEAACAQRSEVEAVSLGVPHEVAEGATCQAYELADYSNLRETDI
T1 sequence (P35368 whole entry): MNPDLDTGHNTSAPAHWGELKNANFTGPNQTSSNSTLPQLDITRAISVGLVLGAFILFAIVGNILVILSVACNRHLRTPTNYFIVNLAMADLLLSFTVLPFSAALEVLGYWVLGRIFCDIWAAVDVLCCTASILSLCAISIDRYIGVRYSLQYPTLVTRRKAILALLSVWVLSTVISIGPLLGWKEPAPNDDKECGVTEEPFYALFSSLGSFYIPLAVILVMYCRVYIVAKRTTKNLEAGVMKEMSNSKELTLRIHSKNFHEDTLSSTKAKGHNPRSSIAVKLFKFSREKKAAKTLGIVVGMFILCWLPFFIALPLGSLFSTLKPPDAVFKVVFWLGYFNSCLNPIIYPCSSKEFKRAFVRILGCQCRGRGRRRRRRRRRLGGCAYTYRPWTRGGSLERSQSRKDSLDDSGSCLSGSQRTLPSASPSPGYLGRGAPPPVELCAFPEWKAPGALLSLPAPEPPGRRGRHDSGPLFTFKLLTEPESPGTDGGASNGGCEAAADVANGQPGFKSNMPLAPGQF

[6] = Concentration required for inhibition of 5-hydroxytryptamine 3 receptor using [3H]GR-65630 as the radioligand
[7] = Concentration required for inhibition of 5-hydroxytryptamine 1 receptor using [3H]-5-HT as the radioligand
[8] = target: T2, Adrenergic receptor alpha-2 (Homo sapiens, UniProt P08913+P18825+P18089); assay: Concentration required for inhibition of alpha-2 adrenergic receptor; assay type: protein assay
T2 sequence (P08913 whole entry): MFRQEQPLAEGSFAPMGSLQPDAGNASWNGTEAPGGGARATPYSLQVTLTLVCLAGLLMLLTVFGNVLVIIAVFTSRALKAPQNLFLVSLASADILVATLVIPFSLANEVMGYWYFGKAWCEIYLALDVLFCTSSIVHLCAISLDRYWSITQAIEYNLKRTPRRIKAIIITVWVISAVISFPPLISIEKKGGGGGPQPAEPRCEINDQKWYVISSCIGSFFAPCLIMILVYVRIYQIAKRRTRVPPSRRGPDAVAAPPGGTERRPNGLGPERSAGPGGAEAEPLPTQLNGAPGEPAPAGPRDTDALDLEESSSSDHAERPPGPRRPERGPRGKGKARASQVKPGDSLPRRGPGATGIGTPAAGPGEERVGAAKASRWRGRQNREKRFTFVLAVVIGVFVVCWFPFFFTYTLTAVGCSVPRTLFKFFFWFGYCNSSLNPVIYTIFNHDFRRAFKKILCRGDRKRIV
T2 sequence (P18825 whole entry): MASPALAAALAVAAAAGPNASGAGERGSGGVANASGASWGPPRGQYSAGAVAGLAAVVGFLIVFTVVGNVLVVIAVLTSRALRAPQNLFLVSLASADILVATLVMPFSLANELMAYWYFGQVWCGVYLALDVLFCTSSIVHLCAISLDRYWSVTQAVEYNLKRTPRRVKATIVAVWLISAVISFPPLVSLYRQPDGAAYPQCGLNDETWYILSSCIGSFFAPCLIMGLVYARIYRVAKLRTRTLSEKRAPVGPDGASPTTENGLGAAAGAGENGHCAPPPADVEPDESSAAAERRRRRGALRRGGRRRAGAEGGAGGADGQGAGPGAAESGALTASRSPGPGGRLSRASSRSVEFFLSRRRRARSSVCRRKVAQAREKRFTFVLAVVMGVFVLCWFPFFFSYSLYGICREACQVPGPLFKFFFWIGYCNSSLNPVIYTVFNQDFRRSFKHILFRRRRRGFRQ
T2 sequence (P18089 whole entry): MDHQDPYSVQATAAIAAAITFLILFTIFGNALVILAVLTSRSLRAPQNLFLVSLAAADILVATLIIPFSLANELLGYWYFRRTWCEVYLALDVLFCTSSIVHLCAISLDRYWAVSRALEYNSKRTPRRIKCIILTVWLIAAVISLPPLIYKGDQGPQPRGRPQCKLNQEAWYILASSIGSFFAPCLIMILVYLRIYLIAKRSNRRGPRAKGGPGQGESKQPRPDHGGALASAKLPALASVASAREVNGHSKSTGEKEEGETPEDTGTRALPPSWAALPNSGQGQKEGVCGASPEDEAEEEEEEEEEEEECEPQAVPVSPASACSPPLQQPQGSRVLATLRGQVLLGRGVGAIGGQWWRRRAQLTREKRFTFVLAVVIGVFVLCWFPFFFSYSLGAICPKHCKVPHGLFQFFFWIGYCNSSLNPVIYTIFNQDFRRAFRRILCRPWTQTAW

[9] = target: Serotonin 2 (5-HT2) receptor (Homo sapiens, UniProt P41595+P28223+P28335); assay type: protein assay
[10] = target: T3, Serotonin 3 receptor (5HT3) (Mus musculus) (UniProt Q9JHJ5+P23979); assay: Percent inhibition of 5-hydroxytryptamine 3 receptor after intraperitoneal administration at dose of 3 mpk was determined in mice by Von Bezold-Jarisch reflex assay
[11] = target: T3, Serotonin 3 receptor (5HT3) (Mus musculus); assay: Percent inhibition of 5-hydroxytryptamine 3 receptor after intraperitoneal administration at dose of 10 mpk was determined in mice by Von Bezold-Jarisch reflex assay
[12] = target: T3, Serotonin 3 receptor (5HT3) (Mus musculus); assay: Percent inhibition of 5-hydroxytryptamine 3 receptor after intraperitoneal administration at dose of 1 mpk was determined in mice by Von Bezold-Jarisch reflex assay
[13] = target: T3, Serotonin 3 receptor (5HT3) (Mus musculus); assay: Percent inhibition of 5-hydroxytryptamine 3 receptor after intraperitoneal administration at dose of 0.3 mpk was determined in mice by Von Bezold-Jarisch reflex assay
[14] = target: T3, Serotonin 3 receptor (5HT3) (Mus musculus); assay: Percent inhibition of 5-hydroxytryptamine 3 receptor after intraperitoneal administration at dose of 0.1 mpk was determined in mice by Von Bezold-Jarisch reflex assay
[15] = target: T3, Serotonin 3 receptor (5HT3) (Mus musculus); assay: Percent inhibition of 5-hydroxytryptamine 3 receptor after intraperitoneal administration at dose of 0.03 mpk was determined in mice by Von Bezold-Jarisch reflex assay
[16] = target: T3, Serotonin 3 receptor (5HT3) (Mus musculus); assay: Percent inhibition of 5-hydroxytryptamine 3 receptor after intraperitoneal administration at dose of 8 mpk was determined in mice by Von Bezold-Jarisch reflex assay
[17] = target: T4, Serotonin 3 (5-HT3) receptor (Rattus norvegicus, UniProt P35563+Q9JJ16); assay: Binding affinity towards 5-hydroxytryptamine 3 receptor using [3H]GR-65630 as the radioligand in male rat cortical tissue; assay type: protein-complex assay
T4 sequence (P35563 whole entry): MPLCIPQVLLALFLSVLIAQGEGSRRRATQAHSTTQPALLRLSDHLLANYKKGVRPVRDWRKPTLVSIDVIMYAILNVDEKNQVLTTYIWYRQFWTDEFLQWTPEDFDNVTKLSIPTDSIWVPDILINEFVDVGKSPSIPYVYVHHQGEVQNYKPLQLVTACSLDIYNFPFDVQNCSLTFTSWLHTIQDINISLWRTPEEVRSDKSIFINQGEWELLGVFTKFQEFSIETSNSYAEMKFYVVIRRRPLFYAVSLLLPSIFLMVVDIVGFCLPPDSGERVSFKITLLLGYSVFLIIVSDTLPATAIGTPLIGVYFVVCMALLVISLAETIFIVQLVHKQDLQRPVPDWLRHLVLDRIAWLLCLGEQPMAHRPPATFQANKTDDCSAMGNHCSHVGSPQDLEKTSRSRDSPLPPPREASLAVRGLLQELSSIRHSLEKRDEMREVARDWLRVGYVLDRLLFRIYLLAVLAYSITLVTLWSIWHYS
T4 sequence (Q9JJ16 whole entry): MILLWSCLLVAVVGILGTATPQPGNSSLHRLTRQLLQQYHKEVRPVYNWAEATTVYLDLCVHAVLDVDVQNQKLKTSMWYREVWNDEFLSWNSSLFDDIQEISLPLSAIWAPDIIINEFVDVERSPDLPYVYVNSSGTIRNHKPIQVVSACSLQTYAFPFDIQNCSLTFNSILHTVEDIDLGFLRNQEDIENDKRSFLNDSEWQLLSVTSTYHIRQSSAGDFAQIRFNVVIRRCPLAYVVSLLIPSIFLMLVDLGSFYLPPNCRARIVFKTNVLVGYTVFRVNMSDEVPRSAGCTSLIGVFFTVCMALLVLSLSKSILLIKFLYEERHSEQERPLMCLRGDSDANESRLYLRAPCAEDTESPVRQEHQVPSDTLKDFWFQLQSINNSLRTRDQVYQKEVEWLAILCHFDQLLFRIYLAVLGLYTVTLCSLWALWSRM

T3 sequence (P23979 whole entry, looked up): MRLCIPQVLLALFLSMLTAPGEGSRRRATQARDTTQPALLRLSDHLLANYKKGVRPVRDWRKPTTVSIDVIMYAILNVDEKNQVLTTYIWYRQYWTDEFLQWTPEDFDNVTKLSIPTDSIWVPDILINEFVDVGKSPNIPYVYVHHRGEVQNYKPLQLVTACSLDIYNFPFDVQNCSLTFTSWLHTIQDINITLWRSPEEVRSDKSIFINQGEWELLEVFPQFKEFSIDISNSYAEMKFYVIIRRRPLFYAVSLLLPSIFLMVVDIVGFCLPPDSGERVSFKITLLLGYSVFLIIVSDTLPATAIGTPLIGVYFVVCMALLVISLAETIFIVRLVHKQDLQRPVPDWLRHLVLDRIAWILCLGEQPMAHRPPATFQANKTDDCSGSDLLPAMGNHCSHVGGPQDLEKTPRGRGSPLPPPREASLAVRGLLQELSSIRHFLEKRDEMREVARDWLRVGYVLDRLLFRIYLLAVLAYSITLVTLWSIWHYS
T3 sequence (Q9JHJ5 whole entry, looked up): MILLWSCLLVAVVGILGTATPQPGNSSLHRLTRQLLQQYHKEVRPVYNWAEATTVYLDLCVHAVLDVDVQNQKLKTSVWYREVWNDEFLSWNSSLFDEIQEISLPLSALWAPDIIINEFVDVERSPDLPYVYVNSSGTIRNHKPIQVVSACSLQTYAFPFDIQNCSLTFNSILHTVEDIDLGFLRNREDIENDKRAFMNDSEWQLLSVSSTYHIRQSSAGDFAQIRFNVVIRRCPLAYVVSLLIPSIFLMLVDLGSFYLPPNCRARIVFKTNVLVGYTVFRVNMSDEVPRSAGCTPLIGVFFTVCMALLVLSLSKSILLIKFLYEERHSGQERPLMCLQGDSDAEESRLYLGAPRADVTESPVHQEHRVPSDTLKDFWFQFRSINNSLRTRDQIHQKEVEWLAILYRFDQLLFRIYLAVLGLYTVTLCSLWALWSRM

IC50 [1]: > 10 µM
IC50 [2]: > 10 µM
IC50 [3]: > 10 µM
ED50 [4]: 0.0513 µM
IC50 [5]: > 10 µM
IC50 [6]: 0.0023 µM
IC50 [7]: > 10 µM
IC50 [8]: > 10 µM
IC50 [9]: > 10 µM
SMILES: COc1cc(N)c(Cl)cc1C(=O)N[C@@H]1C2CC3CN(C2)CC31 (stereo not given in full)

inhibition [12]: 75%
inhibition [13]: 70%
inhibition [10]: 81%
ED50 [4]: 0.262 µM
inhibition [14]: 64%
inhibition [11]: 86%
inhibition [15]: 61%
SMILES: COc1cc(N)c(Cl)cc1C(=O)NC1C2CC3CC1CN(C3)C2 (stereo in doubt; 9b)

inhibition [12]: 82%
inhibition [13]: 75%
inhibition [14]: 60%
inhibition [16]: 82%
inhibition [11]: 88%
inhibition [15]: 0%
SMILES: COc1cc(N)c(Cl)cc1C(=O)NCC1C2CC3CC1CN(C3)C2 (stereo in doubt; 9c)

IC50 [2]: 1.7 µM
IC50 [3]: > 10 µM
ED50 [4]: 0.0547 µM
IC50 [5]: 0.03 µM
IC50 [7]: > 10 µM
SMILES: COc1cc(N)c(Cl)cc1C(=O)NC1CCN(CCCOc2ccc(F)cc2)CC1OC (stereo not given) [CISAPRIDE]

Second part, the compound before the results:

SMILES: COc1cc(N)c(Cl)cc1C(=O)NC1C2CC3CC1CN(C3)C2 (stereo in doubt; 9a)
inhibition [10]: 0%
ED50 [4]: 0.538 µM
inhibition [11]: 85%

SMILES: COc1cc(N)c(Cl)cc1C(=O)NCC1C2CC3CC1CN(C3)C2 (stereo in doubt; 9d) [listing 1 of 2 here]
IC50 [6]: 0.011 µM
Ki [17]: 0.144 µM

SMILES: COc1cc(N)c(Cl)cc1C(=O)NCC1C2CC3CC1CN(C3)C2 (stereo in doubt; 9d) [listing 2 of 2 here]
inhibition [12]: 0%
inhibition [10]: 82%
inhibition [11]: 85%

Reference: ChEMBL document CHEMBL1138016, “Azaadamantane benzamide 5-HT4 agonists: gastrointestinal prokinetic SC-54750” (Bioorg Med Chem Lett, 2004)
